IC50 data for 25 compounds are collected here from US20200361895A1, “NOVEL SULFONAMIDE CARBOXAMIDE COMPOUNDS” (Inflazome Limited, priority 2017, published 2020).

Structures are written as SMILES. Where a name gives a salt, the structure may show the parent alone.

In experiment [1] the target is T1, NLRP3 (Homo sapiens, UniProt Q96P20). The experiment in a line: Human whole blood IL1β release assay (LPS + nigericin, AlphaLisa IL-1β; HWB IC50). The format is cell-based. More on the design: Human whole blood in Li-heparin tubes was obtained from healthy donors from a volunteer donor panel; from tissue; host or cells: human whole blood from healthy donors. The following applies: IL-1β release. Put shortly:
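Donor Li-heparin whole blood primed with 1 μg/ml LPS, given compound (8-point half-log series, 10 μM top; DMSO 0.1% final) for 3 h at 37 °C, then nigericin 10 μM final for 1 h. Supernatant IL-1β measured by AlphaLisa; IC50 from 4-parameter variable-slope fit.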
(In Alpha technology, singlet oxygen from a donor bead excites a nearby acceptor bead.)

Experiment [2] addresses T1, NLRP3. As to the kind of experiment: THP-1 cells pyroptosis assay (LPS + nigericin, resazurin readout; THP IC50). The format is cell-based. More on the design: Seed THP-1 cells (25,000 cells/well) containing 1.0 μg/ml LPS in 40 μl of RPMI medium; host or cells: THP-1 cells. The method in brief:
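Human THP-1 cells, 25,000/well in serum-free RPMI with 1 μg/ml LPS, treated 3 hrs at 37° C with compound (8-point half-log, 10 μM top, 0.1% DMSO), then 5 μM nigericin 1 hr. Viability by 100 μM resazurin fluorescence after 1-2 hrs; IC50 by 4-parameter fit.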

T1 sequence (Q96P20 whole entry): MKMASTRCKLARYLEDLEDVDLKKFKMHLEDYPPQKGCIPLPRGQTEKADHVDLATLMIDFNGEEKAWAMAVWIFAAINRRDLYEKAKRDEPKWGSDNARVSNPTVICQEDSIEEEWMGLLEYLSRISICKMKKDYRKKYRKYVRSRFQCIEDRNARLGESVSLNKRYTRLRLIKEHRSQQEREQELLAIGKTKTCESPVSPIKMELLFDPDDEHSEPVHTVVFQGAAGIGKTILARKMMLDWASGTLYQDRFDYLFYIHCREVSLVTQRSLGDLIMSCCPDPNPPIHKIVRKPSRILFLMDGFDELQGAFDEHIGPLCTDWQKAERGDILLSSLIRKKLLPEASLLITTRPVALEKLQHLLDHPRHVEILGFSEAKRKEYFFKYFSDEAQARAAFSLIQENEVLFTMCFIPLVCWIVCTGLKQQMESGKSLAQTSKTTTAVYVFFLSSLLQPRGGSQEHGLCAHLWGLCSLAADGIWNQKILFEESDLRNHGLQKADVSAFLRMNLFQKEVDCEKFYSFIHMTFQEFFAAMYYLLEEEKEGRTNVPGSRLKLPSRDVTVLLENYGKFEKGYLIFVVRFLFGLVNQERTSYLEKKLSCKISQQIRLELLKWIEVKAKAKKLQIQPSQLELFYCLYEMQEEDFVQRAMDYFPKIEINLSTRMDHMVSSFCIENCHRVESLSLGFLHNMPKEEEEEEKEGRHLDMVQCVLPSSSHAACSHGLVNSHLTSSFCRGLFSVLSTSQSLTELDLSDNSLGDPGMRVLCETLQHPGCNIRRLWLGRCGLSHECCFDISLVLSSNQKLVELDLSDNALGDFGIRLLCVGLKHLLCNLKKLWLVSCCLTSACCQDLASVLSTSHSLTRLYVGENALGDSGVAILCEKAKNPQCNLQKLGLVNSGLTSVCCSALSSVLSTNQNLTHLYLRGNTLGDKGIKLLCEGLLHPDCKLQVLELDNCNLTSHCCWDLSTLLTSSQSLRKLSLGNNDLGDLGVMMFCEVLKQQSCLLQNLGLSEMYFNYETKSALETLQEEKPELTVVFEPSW

Usually IC50 stands for the concentration that gives 50% inhibition. For `COc1cc(-c2ccc3c(c2NC(=O)NS(=O)(=O)c2cn(C(C)C)cn2)CCC3)ccn1` [Example 233, 1-Isopropyl-N-((5-(2-methoxypyridin-4-yl)-2,3-dihydro-1H-inden-4-yl)carbamoyl)-1H-imidazole-4-sulfonamide], the IC50 is no more than 1 µM on NLRP3 [1] and no more than 0.5 µM on NLRP3 [2].
The corresponding values for `CC(C)Oc1cc(-c2cc(F)cc(C(C)C)c2NC(=O)NS(=O)(=O)c2ccn(C(C)C)n2)ccn1` [Example 27, N-((4-Fluoro-2-(2-isopropoxypyridin-4-yl)-6-iso-propyl-phenyl)carbamoyl)-1-iso-propyl-1H-pyrazole-3-sulfonamide] are no more than 5 µM and no more than 0.5 µM.
Regarding `CC(C)(C)n1ccc(S(=O)(=O)NC(=O)Nc2c(-c3ccnc(C#N)c3)ccc3c2CCC3)n1` [Example 264, 1-(tert-Butyl)-N-((5-(2-cyanopyridin-4-yl)-2,3-dihydro-1H-inden-4-yl)carbamoyl)-1H-pyrazole-3-sulfonamide, sodium salt], the IC50 at NLRP3 [1] and on NLRP3 [2] was no more than 0.5 µM throughout.
In the case of `COc1cc(-c2ccc3c(c2NC(=O)NS(=O)(=O)c2ccn(CC4CC4)n2)CCO3)ccn1` [Example 267, 1-(Cyclopropylmethyl)-N-((5-(2-methoxypyridin-4-yl)-2,3-dihydrobenzofuran-4-yl)carbamoyl)-1H-pyrazole-3-sulfonamide, sodium salt], the IC50 on NLRP3 [1] and at NLRP3 [2] was no more than 0.5 µM in each case.
For `CC(C)Oc1cc(-c2ccc3c(c2NC(=O)NS(=O)(=O)c2ccn(C(C)C)n2)CCC3)ccn1` [Example 216, N-((5-(2-Isopropoxypyridin-4-yl)-2,3-dihydro-1H-inden-4-yl)carbamoyl)-1-isopropyl-1H-pyrazole-3-sulfonamide], the values for the half-inhibitory concentration (IC50) on NLRP3 [1] and on NLRP3 [2] were no more than 5 µM and no more than 0.5 µM, respectively.
Take `COc1cc(-c2cc(F)cc(C3CC3)c2NC(=O)NS(=O)(=O)c2ccn(C(C)C)n2)ccn1` [Example 210, N-((2-Cyclopropyl-4-fluoro-6-(2-methoxypyridin-4-yl)phenyl)carbamoyl)-1-isopropyl-1H-pyrazole-3-sulfonamide]: the figures for the IC50 on NLRP3 [1] and on NLRP3 [2] were no more than 5 µM and no more than 0.5 µM, respectively.
For the compound `CC(C)c1cc(F)cc(-c2ccnc(N)c2)c1NC(=O)NS(=O)(=O)c1ccn(C(C)C)n1` [Example 23, N-((2-(2-Aminopyridin-4-yl)-4-fluoro-6-isopropylphenyl)carbamoyl)-1-iso-propyl-1H-pyrazole-3-sulfonamide], the IC50 is no more than 1 µM on NLRP3 [1] and no more than 0.5 µM at NLRP3 [2].
The corresponding values for `O=C(Nc1c(-c2ccnc(OC3CC3)c2)ccc2c1CCC2)NS(=O)(=O)c1ccn(C2CC2)n1` [Example 261, N-((5-(2-Cyclopropoxypyridin-4-yl)-2,3-dihydro-1H-inden-4-yl)carbamoyl)-1-cyclopropyl-1H-pyrazole-3-sulfonamide, sodium salt] are no more than 5 µM and no more than 0.5 µM.
With `CC(C)n1cc(S(=O)(=O)NC(=O)Nc2c(-c3ccnc(C#N)c3)ccc3c2CCC3)ncc1=O` [Example 72, N-((5-(2-Cyanopyridin-4-yl)-2,3-dihydro-1H-inden-4-yl)carbamoyl)-4-isopropyl-5-oxo-4,5-dihydropyrazine-2-sulfonamide, sodium salt], the IC50 is no more than 1 µM on NLRP3 [1] and no more than 0.5 µM on NLRP3 [2].
In the case of `CC(C)n1ccc(S(=O)(=O)NC(=O)Nc2c(-c3cccnc3)ccc3ccccc23)n1` [Example 207, 1-Isopropyl-N-((2-(pyridin-3-yl)naphthalen-1-yl)carbamoyl)-1H-pyrazole-3-sulfonamide], the values for the half-inhibitory concentration (IC50) at NLRP3 [1] and at NLRP3 [2] were no more than 5 µM and no more than 1 µM, respectively.
On to `COc1cc(-c2ccc3c(c2NC(=O)NS(=O)(=O)c2cc(C4CCCN4C)n(C(C)C)n2)CCC3)ccn1` (centres unmarked) [Example 191, 1-Isopropyl-N-((5-(2-methoxypyridin-4-yl)-2,3-dihydro-1H-inden-4-yl)carbamoyl)-5-(1-methylpyrrolidin-2-yl)-1H-pyrazole-3-sulfonamide, sodium salt], for which the IC50 on NLRP3 [1] is no more than 1 µM; on NLRP3 [2], no more than 0.5 µM.
Consider `COc1cc(-c2ccc3c(c2NC(=O)NS(=O)(=O)c2ccc(CN(C)C)cc2)CCO3)ccn1` [Example 311, 4-((Dimethylamino)methyl)-N-((5-(2-methoxypyridin-4-yl)-2,3-dihydrobenzofuran-4-yl)carbamoyl)benzenesulfonamide], for which the IC50 at NLRP3 [1] and at NLRP3 [2] was no more than 0.5 µM in each case.
Regarding `O=C(Nc1c(-c2ccncc2)cc(F)c2c1CCC2)NS(=O)(=O)C1CN(C2CCC2)C1` [Example 81, 1-Cyclobutyl-N-((7-fluoro-5-(pyridin-4-yl)-2,3-dihydro-1H-inden-4-yl)carbamoyl)azetidine-3-sulfonamide], the values for the IC50 on NLRP3 [1] and at NLRP3 [2] were no more than 1 µM and no more than 0.5 µM, respectively.
Consider `COc1cc(-c2ccc3c(c2NC(=O)NS(=O)(=O)c2ccn(C(C)(C)C)n2)CCC3)ccn1` [Example 252, 1-(tert-Butyl)-N-((5-(2-methoxypyridin-4-yl)-2,3-dihydro-1H-inden-4-yl)carbamoyl)-1H-pyrazole-3-sulfonamide, sodium salt], for which the concentration for half-maximal inhibition (IC50) on NLRP3 [1] and on NLRP3 [2] was no more than 0.5 µM in each case.
Turning to `COc1cc(-c2ccc3c(c2NC(=O)NS(=O)(=O)CCOC(C)C)CCC3)ccn1` [Example 174, 2-Isopropoxy-N-((5-(2-methoxypyridin-4-yl)-2,3-dihydro-1H-inden-4-yl)carbamoyl)ethanesulfonamide, sodium salt], the concentration for half-maximal inhibition (IC50) on NLRP3 [1] was no more than 1 µM; at NLRP3 [2] it was no more than 0.5 µM.
The corresponding values for `Cc1cc(C)nc(S(=O)(=O)NC(=O)Nc2c(-c3ccnc(C#N)c3)cc(F)cc2C(C)C)n1` [Example 114, N-((2-(2-Cyanopyridin-4-yl)-4-fluoro-6-isopropylphenyl)carbamoyl)-4,6-dimethylpyrimidine-2-sulfonamide] are no more than 5 µM and no more than 0.5 µM.
As to `CCn1nc(S(=O)(=O)NC(=O)Nc2c(-c3ccnc(C#N)c3)cc(F)cc2C(C)C)cc1CN(C)C` [Example 49, N-((2-(2-Cyanopyridin-4-yl)-4-fluoro-6-isopropylphenyl)carbamoyl)-5-((dimethylamino)methyl)-1-ethyl-1H-pyrazole-3-sulfonamide], the 50% inhibitory concentration (IC50) at NLRP3 [1] and on NLRP3 [2] was no more than 0.5 µM throughout.
On to `CC(C)n1ccc(S(=O)(=O)NC(=O)Nc2c(-c3ccnc(OC4CCOC4)c3)ccc3c2CCC3)n1` (centres unmarked) [Example 291, 1-Isopropyl-N-((5-(2-((tetrahydrofuran-3-yl)oxy)pyridin-4-yl)-2,3-dihydro-1H-inden-4-yl)carbamoyl)-1H-pyrazole-3-sulfonamide, sodium salt], for which the IC50 on NLRP3 [1] was no more than 1 µM; at NLRP3 [2], no more than 0.5 µM.
Take `COc1cc(-c2ccc3c(c2NC(=O)NS(=O)(=O)c2cc(N(C)C)cnn2)CCC3)ccn1` [Example 120, 5-(Dimethylamino)-N-((5-(2-methoxypyridin-4-yl)-2,3-dihydro-1H-inden-4-yl)carbamoyl) pyridazine-3-sulfonamide]: the IC50 at NLRP3 [1] is no more than 5 µM; on NLRP3 [2], no more than 0.5 µM.
Regarding `CC(C)Oc1cc(-c2cc(F)cc(C(C)C)c2NC(=O)NS(=O)(=O)c2cc(C(=O)N(C)C)n(C)n2)ccn1` [Example 168, 3-(N-((4-Fluoro-2-(2-isopropoxypyridin-4-yl)-6-isopropyl-phenyl)carbamoyl)sulfamoyl)-N,N,1-trimethyl-1H-pyrazole-5-carboxamide, sodium salt], the IC50 on NLRP3 [1] was no more than 5 µM; at NLRP3 [2], no more than 0.5 µM.
On to `COc1cc(-c2cc(F)cc(C(C)C)c2NC(=O)NS(=O)(=O)c2ccn(C(C)C)n2)ccn1` [Example 12, N-((4-Fluoro-2-iso-propyl-6-(2-methoxypyridin-4-yl)phenyl)carbamoyl)-1-iso-propyl-1H-pyrazole-3-sulfonamide, partial ammonium salt], for which the IC50 is no more than 1 µM on NLRP3 [1] and no more than 0.5 µM at NLRP3 [2].
In the case of `COc1cc(-c2ccc3c(c2NC(=O)NS(=O)(=O)c2ccn(C4CC4)n2)CCO3)ccn1` [Example 248, 1-Cyclopropyl-N-((5-(2-methoxypyridin-4-3-sulfonamide, sodium salt], the IC50 at NLRP3 [1] and at NLRP3 [2] was no more than 0.5 µM throughout.
Regarding `COc1cc(-c2cc(Cl)c3c(c2NC(=O)NS(=O)(=O)c2ccn(C(C)C)n2)CCC3)ccn1` [Example 226, N-((7-Chloro-5-(2-methoxypyridin-4-yl)2,3-dihydro-1H-inden-4-yl)carbamoyl)-1-isopropyl-1H-pyrazole-3-sulfonamide, sodium salt], the IC50 at NLRP3 [1] was no more than 1 µM; on NLRP3 [2], no more than 0.5 µM.
Consider `CC(C)n1ccc(S(=O)(=O)NC(=O)Nc2c(-c3ccnc(CO)c3)ccc3c2CCC3)n1` [Example 298, N-((5-(2-(Hydroxymethyl)pyridin-4-yl)-2,3-dihydro-1H-inden-4-yl)carbamoyl)-1-isopropyl-1H-pyrazole-3-sulfonamide], for which the results for the IC50 at NLRP3 [1] and on NLRP3 [2] were no more than 1 µM and no more than 0.5 µM, respectively.
Turning to `COc1cc(-c2ccc3c(c2NC(=O)NS(=O)(=O)c2ccc(=O)n(C(C)C)c2)CCC3)ccn1` [Example 70, 1-Isopropyl-N-((5-(2-methoxypyridin-4-yl)-2,3-dihydro-1H-inden-4-yl)carbamoyl)-6-oxo-1,6-dihydropyridine-3-sulfonamide], the IC50 at NLRP3 [1] and on NLRP3 [2] was no more than 0.5 µM throughout.
